Assay results published in patent US20250186391A1, “ORAL COMPLEMENT FACTOR D INHIBITORS” (BioCryst Pharmaceuticals, Inc., priority 2019, published 2025).

Molecular target: Factor D (Homo sapiens (Human), UniProt P00746)
Test: Factor D esterolytic assay
Format: biochemical
Conditions: Z-Lys-SBzl substrate, 100 mM HEPES, 500 mM NaCl, pH 7.5, 10% DMSO; tested a minimum of three times; read-out: Measured Ki (IC50) Value for Compounds: IC50
Outline: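 Buffer was 100 mM HEPES, 500 mM NaCl, pH 7.5 with 10% DMSO. Compound and Factor D were combined, then Z-Lys-SBzl (1.29 mM) was added either at once or following room-temperature incubation. Rates came from DTNB colour at 405 nm minus 690 nm over 600 s, with percent inhibition giving IC50 over at least three tests.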

Chain of Factor D (P00746 26-253): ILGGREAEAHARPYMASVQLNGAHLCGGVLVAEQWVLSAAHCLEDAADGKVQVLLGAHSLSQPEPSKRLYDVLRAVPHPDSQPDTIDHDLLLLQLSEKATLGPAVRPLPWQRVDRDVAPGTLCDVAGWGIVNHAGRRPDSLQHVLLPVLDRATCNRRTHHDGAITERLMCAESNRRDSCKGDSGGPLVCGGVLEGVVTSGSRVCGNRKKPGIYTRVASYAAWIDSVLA

Compound	IC50
CC(C)Nc1cc(-c2cccc(CN)c2)cc2c(COc3ccccc3CC(=O)O)coc12 [Compound 148d, 2-(2-((5-(3-(aminomethyl)phenyl)-7-(isopropylamino)benzofuran-3-yl)methoxy)phenyl)acetic acid]	< 1 µM
NCc1cccc(-c2ccc3oc(C4CC4)c(COc4ccccc4CC(=O)O)c3c2)c1 [Compound 133f, 2-(2-((5-(3-(aminomethyl)phenyl)-2-cyclopropylbenzofuran-3-yl)methoxy)phenyl)acetic acid]	< 1 µM
Cc1oc2ccc(-c3cccc(CN)c3)cc2c1COc1cc(F)ccc1CC(=O)O [Compound 200c, 2-(2-((5-(3-(aminomethyl)phenyl)-2-methylbenzofuran-3-yl)methoxy)-4-fluorophenyl)acetic acid]	< 1 µM
NCc1nccc(-c2cc3c(COc4ccccc4CC(=O)O)coc3c3ccoc23)c1F [Compound 289d, 2-(2-((5-(2-(aminomethyl)-3-fluoropyridin-4-yl)benzo[1,2-b:3,4-b′]difuran-3-yl)methoxy)phenyl)acetic acid]	< 1 µM
Cc1ccc(CC(=O)O)c(OCc2coc3c2cc(-c2cccc(CN)c2)c2occc23)c1 [Compound 230c, 2-(2-((5-(3-(aminomethyl)phenyl)benzo[1,2-b:3,4-b′]difuran-3-yl)methoxy)-4-methylphenyl)acetic acid]	< 1 µM
NCc1cccc(-c2cc(COc3ccc(F)cc3)c3occ(COc4ccccc4CC(=O)O)c3c2)c1 [Compound 143f, 2-(2-((5-(3-(aminomethyl)phenyl)-7-((4-fluorophenoxy)methyl)benzofuran-3-yl)methoxy)phenyl)acetic acid]	< 1 µM
NCc1cccc(-c2ccc3c(c2)c(COc2ccccc2CC(=O)O)nn3C2CCCCO2)c1 (centres unmarked) [Compound 80d, 2-(2-((5-(3-(aminomethyl)phenyl)-1-(tetrahydro-2H-pyran-2-yl)-1H-indazol-3-yl)methoxy)phenyl)acetic acid]	< 1 µM
COc1ccc(CC(=O)O)c(OCc2c(C(F)F)oc3c(NCC4CC4)cc(-c4cccc(CN)c4)cc23)c1 [Compound 236c, 2-(2-((5-(3-(aminomethyl)phenyl)-7-((cyclopropylmethyl)amino)-2-(difluoromethyl)benzofuran-3-yl)methoxy)-4-methoxyphenyl)acetic acid]	< 1 µM
NCc1cccc(-c2cc(-c3cccc(CN)c3)c3oc(C(=O)O)c(COc4ccccc4CC(=O)O)c3c2)c1 [Compound 58f, 5,7-bis(3-(aminomethyl)phenyl)-3-((2-(carboxymethyl)phenoxy)methyl)benzofuran-2-carboxylic acid]	< 1 µM
Cc1oc2c(cc(-c3cccc(CN)c3)c3occc32)c1COc1ccccc1CC(=O)O [Compound 233h, 2-(2-((5-(3-(aminomethyl)phenyl)-2-methylbenzo[1,2-b:3,4-b′]difuran-3-yl)methoxy)phenyl)acetic acid]	< 1 µM
NCc1cccc(-c2ccc3occ(COc4ccccc4CC(=O)O)c3c2)c1F [Compound 42b, 2-(2-((5-(3-(aminomethyl)-2-fluorophenyl)benzofuran-3-yl)methoxy)phenyl)acetic acid]	< 1 µM
CN1CCN(Cc2cc(-c3cccc(CN)c3)cc3c(COc4ccccc4CC(=O)O)coc23)CC1 [Compound 157e, 2-(2-((5-(3-(aminomethyl)phenyl)-7-((4-methylpiperazin-1-yl)methyl)benzofuran-3-yl)methoxy)phenyl)acetic acid]	< 1 µM
NCc1cccc(-c2cc(CNCC(F)(F)F)c3occ(COc4ccccc4CC(=O)O)c3c2)c1 [Compound 179b, 2-(2-((5-(3-(aminomethyl)phenyl)-7-(((2,2,2-trifluoroethyl)amino)methyl)benzofuran-3-yl)methoxy)phenyl)acetic acid]	< 1 µM
COc1ccc(CC(=O)O)c(OCc2c(C(C)C)oc3c(NCC4CC4)cc(-c4cccc(CN)c4)cc23)c1 [Compound 295h, 2-(2-((5-(3-(aminomethyl)phenyl)-7-((cyclopropylmethyl)amino)-2-isopropylbenzofuran-3-yl)methoxy)-4-methoxyphenyl)acetic acid]	< 1 µM
NCc1cccc(-c2cc3cccc(COc4ccccc4CC(=O)O)c3o2)c1 [Compound 98g, 2-(2-((2-(3-(aminomethyl)phenyl)benzofuran-7-yl)methoxy)phenyl)acetic acid]	< 1 µM
COCCNc1cc(-c2cccc(CN)c2)cc2c(COc3ccccc3CC(=O)O)coc12 [Compound 296d, 2-(2-((5-(3-(aminomethyl)phenyl)-7-((2-methoxyethyl)amino)benzofuran-3-yl)methoxy)phenyl)acetic acid]	< 1 µM
NCc1cccc(-c2ccc3occ(COc4ccc(F)cc4CC(=O)O)c3c2)c1F [Compound 45b, 2-(2-((5-(3-(aminomethyl)-2-fluorophenyl)benzofuran-3-yl)methoxy)-5-fluorophenyl)acetic acid]	< 1 µM
CC(O)c1oc2ccc(-c3cccc(CN)c3)cc2c1COc1ccccc1CC(=O)O (centres unmarked) [Compound 125d, 2-(2-((5-(3-(aminomethyl)phenyl)-2-(1-hydroxyethyl)benzofuran-3-yl)methoxy)phenyl)acetic acid]	< 1 µM

Compound	IC50
CC(C)CNc1cc(-c2cccc(CN)c2)cc2c(COc3ccccc3CC(=O)O)coc12 [Compound 151d, 2-(2-((5-(3-(aminomethyl)phenyl)-7-(isobutylamino)benzofuran-3-yl)methoxy)phenyl)acetic acid]	< 1 µM
Cn1nc2ccc(-c3cccc(CN)c3)cc2c1COc1ccccc1CC(=O)O [Compound 184e, 2-(2-((5-(3-(aminomethyl)phenyl)-2-methyl-2H-indazol-3-yl)methoxy)phenyl)acetic acid]	< 1 µM
NCc1cccc(-c2cc(CCC3CC3)c3occ(COc4ccccc4CC(=O)O)c3c2)c1 [Compound 170b, 2-(2-((5-(3-(aminomethyl)phenyl)-7-(2-cyclopropylethyl)benzofuran-3-yl)methoxy)phenyl)acetic acid]	< 1 µM
CCCc1oc2ccc(-c3cccc(CN)c3)cc2c1COc1cc(OC)ccc1CC(=O)O [Compound 284e, 2-(2-((5-(3-(aminomethyl)phenyl)-2-propylbenzofuran-3-yl)methoxy)-4-methoxyphenyl)acetic acid]	< 1 µM
CC(C)n1nc(COc2ccccc2CC(=O)O)c2cc(-c3cccc(CN)c3F)ccc21 [Compound 310b, 2-(2-((5-(3-(aminomethyl)-2-fluorophenyl)-1-isopropyl-1H-indazol-3-yl)methoxy)phenyl)acetic acid]	< 1 µM
NCc1cccc(-c2cc(OCc3ccncc3)c3occ(COc4ccccc4CC(=O)O)c3c2)c1 [Compound 166f, 2-(2-((5-(3-(aminomethyl)phenyl)-7-(pyridin-4-ylmethoxy)benzofuran-3-yl)methoxy)phenyl)acetic acid]	< 1 µM
CC(C)n1nc(COc2ccccc2CC(=O)O)c2cc(-c3cccc(CN)c3O)ccc21 [Compound 318f, 2-(2-((5-(3-(aminomethyl)-2-hydroxyphenyl)-1-isopropyl-1H-indazol-3-yl)methoxy)phenyl)acetic acid]	< 1 µM
NCc1cccc(-c2cccc3cc(COc4ccccc4CC(=O)O)oc23)c1 [Compound 19e, 2-(2-((7-(3-(aminomethyl)phenyl)benzofuran-2-yl)methoxy)phenyl)acetic acid]	< 1 µM
Cn1nc(COc2ccccc2CC(=O)O)c2cc(-c3cccc(CN)c3)c3occc3c21 [Compound 3021, 2-(2-((5-(3-(aminomethyl)phenyl)-1-methyl-1H-furo[2,3-g]indazol-3-yl)methoxy)phenyl)acetic acid]	< 1 µM
CC(C)n1nc(COc2ccccc2CC(=O)O)c2cc(-c3ccc(N)cc3)ccc21 [Compound 322c, 2-(2-((5-(4-aminophenyl)-1-isopropyl-1H-indazol-3-yl)methoxy)phenyl)acetic acid]	> 10 µM
Cc1ccc(CC(=O)O)c(OCc2c(C)oc3ccc(-c4cccc(CN)c4)cc23)c1 [Compound 131c, 2-(2-((5-(3-(aminomethyl)phenyl)-2-methylbenzofuran-3-yl)methoxy)-4-methylphenyl)acetic acid]	< 1 µM
CCc1ccc(CC(=O)O)c(OCc2c(C)oc3ccc(-c4cccc(CN)c4)cc23)c1 [Compound 202c, 2-(2-((5-(3-(aminomethyl)phenyl)-2-methylbenzofuran-3-yl)methoxy)-4-ethylphenyl)acetic acid]	< 1 µM
Cc1ccc(CC(=O)O)c(OCc2nn(C)c3ccc(-c4cccc(CN)c4)cc23)c1 [Compound 206c, 2-(2-((5-(3-(aminomethyl)phenyl)-1-methyl-1H-indazol-3-yl)methoxy)-4-methylphenyl)acetic acid]	< 1 µM
COc1cc(-c2cccc(CN)c2)cc2c(COc3cc(C(F)(F)F)ccc3CC(=O)O)coc12 [Compound 269c, 2-(2-((5-(3-(aminomethyl)phenyl)-7-methoxybenzofuran-3-yl)methoxy)-4-(trifluoromethyl)phenyl)acetic acid]	< 1 µM
NCc1cccc(-c2ccc3oc(-c4ccc(F)cc4)c(COc4ccccc4CC(=O)O)c3c2)c1 [Compound 167e, 2-(2-((5-(3-(aminomethyl)phenyl)-2-(4-fluorophenyl)benzofuran-3-yl)methoxy)phenyl)acetic acid]	< 1 µM
CC(C)n1nc(COc2ccccc2CC(=O)O)c2cc(-c3cc(CN)cc(OCc4cccnc4)c3)ccc21 [Compound 243h, 2-(2-((5-(3-(aminomethyl)-5-(pyridin-3-ylmethoxy)phenyl)-1-isopropyl-1H-indazol-3-yl)methoxy)phenyl)acetic acid]	> 10 µM
CC(C)n1nc(COc2ccccc2CC(=O)O)c2cc(-c3cccc([C@H](C)N)c3)ccc21 [Compound 320b, (S)-2-(2-((5-(3-(1-aminoethyl)phenyl)-1-isopropyl-1H-indazol-3-yl)methoxy)phenyl)acetic acid]	< 1 µM
